# Reference: PubChem BioAssay AID1259407 (Chemical Carcinogenesis Research Information System (CCRIS), 2018)
# Calls of active or inactive are those of the source. The rule behind the calls is not given here.
# Tested on: CCRIS mutagenicity, Ames/micronucleus/aberration tests
# Assay: CCRIS mutagenicity studies
# [1] = Test System: AMES SALMONELLA TYPHIMURIUM, Strain/Indicator: TA98, Metabolic Activation: NONE, Method: STANDARD PLATE
# [2] = Test System: AMES SALMONELLA TYPHIMURIUM, Strain/Indicator: TA100, Metabolic Activation: NONE, Method: STANDARD PLATE
# [3] = Test System: AMES SALMONELLA TYPHIMURIUM, Strain/Indicator: TA98, Metabolic Activation: NONE, Method: PREINCUBATION
# [4] = Test System: AMES SALMONELLA TYPHIMURIUM, Strain/Indicator: TA100, Metabolic Activation: HAMSTER, LIVER, S-9, AROCLOR 1254 (10%), Method: PREINCUBATION
# [5] = Test System: AMES SALMONELLA TYPHIMURIUM, Strain/Indicator: TA100, Metabolic Activation: NONE, Method: PREINCUBATION
# [6] = Test System: AMES SALMONELLA TYPHIMURIUM, Strain/Indicator: TA100, Metabolic Activation: RAT, LIVER, S-9, AROCLOR 1254 (10%), Method: PREINCUBATION
# [7] = Test System: AMES SALMONELLA TYPHIMURIUM, Strain/Indicator: TA1535, Metabolic Activation: NONE, Method: PREINCUBATION
# [8] = Test System: AMES SALMONELLA TYPHIMURIUM, Strain/Indicator: TA1537, Metabolic Activation: NONE, Method: PREINCUBATION
# [9] = Test System: AMES SALMONELLA TYPHIMURIUM, Strain/Indicator: TA97, Metabolic Activation: HAMSTER, LIVER, S-9, AROCLOR 1254 (10 OR 30%), Method: PREINCUBATION
# [10] = Test System: AMES SALMONELLA TYPHIMURIUM, Strain/Indicator: TA97, Metabolic Activation: NONE, Method: PREINCUBATION
# [11] = Test System: AMES SALMONELLA TYPHIMURIUM, Strain/Indicator: TA97, Metabolic Activation: RAT, LIVER, S-9, AROCLOR 1254 (10 OR 30%), Method: PREINCUBATION
# [12] = Test System: AMES SALMONELLA TYPHIMURIUM, Strain/Indicator: TA98, Metabolic Activation: HAMSTER, LIVER, S-9, AROCLOR 1254 (10 OR 30%), Method: PREINCUBATION
# [13] = Test System: AMES SALMONELLA TYPHIMURIUM, Strain/Indicator: TA98, Metabolic Activation: RAT, LIVER, S-9, AROCLOR 1254 (10 OR 30%), Method: PREINCUBATION
# [14] = Test System: AMES SALMONELLA TYPHIMURIUM, Strain/Indicator: TA1535, Metabolic Activation: HAMSTER, LIVER, S-9, AROCLOR 1254 (10 OR 30%), Method: PREINCUBATION
# [15] = Test System: AMES SALMONELLA TYPHIMURIUM, Strain/Indicator: TA1535, Metabolic Activation: RAT, LIVER, S-9, AROCLOR 1254 (10 OR 30%), Method: PREINCUBATION
structure (smiles),measurement,setting,value
C[C@H]1CC[C@@H]2[C@@H](C)[C@H]3[C@H](C[C@H]4[C@@H]5CC=C6C[C@@H](O[C@@H]7O[C@H](CO)[C@@H](O[C@@H]8O[C@@H](C)[C@H](O)[C@@H](O)[C@H]8O)[C@H](O)[C@H]7O[C@@H]7O[C@@H](C)[C@H](O)[C@@H](O)[C@H]7O)CC[C@]6(C)[C@H]5CC[C@]34C)N2C1,mutagenic call,[1],inactive; negative
same,mutagenic call,"Test System: AMES SALMONELLA TYPHIMURIUM, Strain/Indicator: TA98, Metabolic Activation: S-9, Method: STANDARD PLATE",inactive; negative
same,mutagenic call,[2],inactive; negative
same,mutagenic call,"Test System: AMES SALMONELLA TYPHIMURIUM, Strain/Indicator: TA100, Metabolic Activation: S-9, Method: STANDARD PLATE",inactive; negative
CCc1c(Br)c(Br)c(Br)c(Br)c1Br,mutagenic call,"Test System: AMES SALMONELLA TYPHIMURIUM, Strain/Indicator: TA98, Metabolic Activation: HAMSTER, LIVER, S-9, AROCLOR 1254 (10%), Method: PREINCUBATION",inactive; negative
same,mutagenic call,[3],inactive; negative
same,mutagenic call,"Test System: AMES SALMONELLA TYPHIMURIUM, Strain/Indicator: TA98, Metabolic Activation: RAT, LIVER, S-9, AROCLOR 1254 (10%), Method: PREINCUBATION",inactive; negative
same,mutagenic call,[4],inactive; negative
same,mutagenic call,[5],inactive; negative
same,mutagenic call,[6],inactive; negative
same,mutagenic call,"Test System: AMES SALMONELLA TYPHIMURIUM, Strain/Indicator: TA1535, Metabolic Activation: HAMSTER, LIVER, S-9, AROCLOR 1254 (10%), Method: PREINCUBATION",inactive; negative
same,mutagenic call,[7],inactive; negative
same,mutagenic call,"Test System: AMES SALMONELLA TYPHIMURIUM, Strain/Indicator: TA1535, Metabolic Activation: RAT, LIVER, S-9, AROCLOR 1254 (10%), Method: PREINCUBATION",inactive; negative
same,mutagenic call,"Test System: AMES SALMONELLA TYPHIMURIUM, Strain/Indicator: TA1537, Metabolic Activation: HAMSTER, LIVER, S-9, AROCLOR 1254 (10%), Method: PREINCUBATION",inactive; negative
same,mutagenic call,[8],inactive; negative
same,mutagenic call,"Test System: AMES SALMONELLA TYPHIMURIUM, Strain/Indicator: TA1537, Metabolic Activation: RAT, LIVER, S-9, AROCLOR 1254 (10%), Method: PREINCUBATION",inactive; negative
CC(=O)OC(C(C)=O)N(C)N=O (stereo unspecified),mutagenic call,[7],active; positive
C[C@@H]1C[C@@H]([C@H](O)CC2CC(=O)NC(=O)C2)C(=O)[C@@H](C)C1,mutagenic call,[9],inactive; negative
same,mutagenic call,[10],inactive; negative
same,mutagenic call,[11],inactive; negative
same,mutagenic call,[12],inactive; negative
same,mutagenic call,[3],inactive; negative
same,mutagenic call,[1],inactive; negative
same,mutagenic call,[13],inactive; negative
same,mutagenic call,"Test System: AMES SALMONELLA TYPHIMURIUM, Strain/Indicator: TA98, Metabolic Activation: RAT, LIVER, S-9, AROCLOR, Method: STANDARD PLATE",inactive; negative
same,mutagenic call,"Test System: AMES SALMONELLA TYPHIMURIUM, Strain/Indicator: TA100, Metabolic Activation: HAMSTER, LIVER, S-9, AROCLOR 1254 (10 OR 30%), Method: PREINCUBATION",inactive; negative
same,mutagenic call,[5],inactive; negative
same,mutagenic call,[2],inactive; negative
same,mutagenic call,"Test System: AMES SALMONELLA TYPHIMURIUM, Strain/Indicator: TA100, Metabolic Activation: RAT, LIVER, S-9, AROCLOR 1254 (10 OR 30%), Method: PREINCUBATION",inactive; negative
same,mutagenic call,"Test System: AMES SALMONELLA TYPHIMURIUM, Strain/Indicator: TA100, Metabolic Activation: RAT, LIVER, S-9, AROCLOR, Method: STANDARD PLATE",inactive; negative
same,mutagenic call,[14],inactive; negative
same,mutagenic call,[7],inactive; negative
same,mutagenic call,[15],inactive; negative
same,mutagenic call,"Test System: AMES SALMONELLA TYPHIMURIUM, Strain/Indicator: TA1537, Metabolic Activation: HAMSTER, LIVER, S-9, AROCLOR 1254 (30%), Method: PREINCUBATION",inactive; negative
same,mutagenic call,[8],inactive; negative
same,mutagenic call,"Test System: AMES SALMONELLA TYPHIMURIUM, Strain/Indicator: TA1537, Metabolic Activation: RAT, LIVER, S-9, AROCLOR 1254 (30%), Method: PREINCUBATION",inactive; negative
same,mutagenic call,"Test System: MOUSE LYMPHOMA, Strain/Indicator: L5178Y (TK+/TK-), Metabolic Activation: NONE, Method: SUSPENSION/PLATE",active; positive
O=C(O)Nc1ccc(-c2ccccc2)cc1,mutagenic call,[3],active; positive
same,mutagenic call,"Test System: AMES SALMONELLA TYPHIMURIUM, Strain/Indicator: TA98, Metabolic Activation: RAT, LIVER, CYTOSOL, Method: PREINCUBATION",active; positive
same,mutagenic call,"Test System: AMES SALMONELLA TYPHIMURIUM, Strain/Indicator: TA98, Metabolic Activation: RAT, LIVER, MICROSOMES, Method: PREINCUBATION",active; positive
CC(=O)O[C@H]1[C@H]2O[C@H]2C2=CC(=O)[C@]3(C[C@]2(C)[C@H]1C)O[C@]3(C)C=O,mutagenic call,[3],active; positive
same,mutagenic call,"Test System: AMES SALMONELLA TYPHIMURIUM, Strain/Indicator: TA98, Metabolic Activation: RAT, LIVER, S-9, PHENOBARBITAL AND BETA-NAPHTHOFLAVONE, Method: PREINCUBATION",inactive; negative
same,mutagenic call,[5],inactive; negative
same,mutagenic call,"Test System: AMES SALMONELLA TYPHIMURIUM, Strain/Indicator: TA100, Metabolic Activation: RAT, LIVER, MICROSOMES, PHENOBARBITAL, Method: STANDARD PLATE",active; positive
same,mutagenic call,"Test System: AMES SALMONELLA TYPHIMURIUM, Strain/Indicator: TA100, Metabolic Activation: RAT, LIVER, S-9, PHENOBARBITAL AND BETA-NAPHTHOFLAVONE, Method: PREINCUBATION",inactive; negative
same,mutagenic call,"Test System: AMES SALMONELLA TYPHIMURIUM, Strain/Indicator: TA100, Metabolic Activation: RAT, LIVER, S-9, PHENOBARBITAL, Method: PREINCUBATION",inactive; negative
same,mutagenic call,[7],inactive; negative
same,mutagenic call,"Test System: AMES SALMONELLA TYPHIMURIUM, Strain/Indicator: TA1535, Metabolic Activation: RAT, LIVER, S-9, PHENOBARBITAL AND BETA-NAPHTHOFLAVONE, Method: PREINCUBATION",inactive; negative
same,mutagenic call,[8],inactive; negative
same,mutagenic call,"Test System: AMES SALMONELLA TYPHIMURIUM, Strain/Indicator: TA1537, Metabolic Activation: RAT, LIVER, S-9, PHENOBARBITAL AND BETA-NAPHTHOFLAVONE, Method: PREINCUBATION",inactive; negative
same,mutagenic call,"Test System: AMES SALMONELLA TYPHIMURIUM, Strain/Indicator: TA1538, Metabolic Activation: NONE, Method: PREINCUBATION",inactive; negative
same,mutagenic call,"Test System: AMES SALMONELLA TYPHIMURIUM, Strain/Indicator: TA1538, Metabolic Activation: RAT, LIVER, S-9, PHENOBARBITAL AND BETA-NAPHTHOFLAVONE, Method: PREINCUBATION",inactive; negative
CCOc1ccccc1N,mutagenic call,[9],inactive; negative
same,mutagenic call,[10],inactive; negative
same,mutagenic call,[11],inactive; negative
same,mutagenic call,[12],inactive; negative
same,mutagenic call,[3],inactive; negative
same,mutagenic call,[13],inactive; negative
same,mutagenic call,[4],inactive; negative
same,mutagenic call,"Test System: AMES SALMONELLA TYPHIMURIUM, Strain/Indicator: TA100, Metabolic Activation: HAMSTER, LIVER, S-9, AROCLOR 1254 (30%), Method: PREINCUBATION",inactive; negative
same,mutagenic call,[5],inactive; negative
same,mutagenic call,[6],inactive; negative
same,mutagenic call,"Test System: AMES SALMONELLA TYPHIMURIUM, Strain/Indicator: TA100, Metabolic Activation: RAT, LIVER, S-9, AROCLOR 1254 (30%), Method: PREINCUBATION",inactive; negative
same,mutagenic call,[14],inactive; negative
same,mutagenic call,[7],inactive; negative
same,mutagenic call,[15],inactive; negative
